Among the test systems are UO-31 renal; HCT-116 colon; NCI/ADR-RES ovarian; A498 renal; LOX IMVI melanoma; K-562 leukemia; HS 578T breast; OVCAR-8 ovarian; CCRF-CEM leukemia; MCF7 breast.
Holding throughout (test): NCI-60 cell line screen, 48 h

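96-well plates; 48 h exposure; 5 concentrations. Endpoints by linear interpolation between flanking doses. Not reached: highest tested concentration assigned. GI50 is the concentration that inhibits growth by half. Definition used: TGI = concentration required for complete inhibition of growth.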

As for `CCCc1ccc(S(=O)(=O)N[C@H]2CC[C@H]3[C@@H]4CCc5cc(O)ccc5[C@H]4CC[C@]23C)cc1`, the GI50 was 2.23 µM in the assay on UO-31 renal; 1.78 µM in the assay on HCT-116 colon; 2.75 µM in the assay on NCI/ADR-RES ovarian; 1.78 µM in the assay on A498 renal; 1.72 µM with LOX IMVI melanoma; 3.06 µM with K-562 leukemia. Moreover, the GI50 was 3.33 µM with HS 578T breast, 3.29 µM in the assay on OVCAR-8 ovarian, 2.72 µM with CCRF-CEM leukemia and 2.66 µM in the assay with MCF7 breast. Further, the TGI in the assay with UO-31 renal amounted to 8.78 µM; with HCT-116 colon, 3.27 µM; in the assay with NCI/ADR-RES ovarian, 10.6 µM; in the assay with A498 renal, 5.45 µM; in the assay on LOX IMVI melanoma, 3.17 µM; in the assay on K-562 leukemia, 12 µM. In addition, the TGI turned out to be 12.9 µM with HS 578T breast, 13.1 µM with OVCAR-8 ovarian, 12 µM in the assay with CCRF-CEM leukemia and 7.29 µM with MCF7 breast.
Take `CCCCCNC(=O)[C@@H]1CCCN2C(=O)CC[C@H](NC(=O)[C@H](Cc3ccc(OP(=O)(O)O)cc3)NC(C)=O)C(=O)N12`: the GI50 in the assay with UO-31 renal, in the assay with HCT-116 colon, in the assay on NCI/ADR-RES ovarian, in the assay with A498 renal, in the assay on LOX IMVI melanoma and in the assay with K-562 leukemia was above 25 µM each time. The GI50 in the assay on HS 578T breast, with OVCAR-8 ovarian, in the assay with CCRF-CEM leukemia and with MCF7 breast was above 25 µM each time. The TGI in the assay with UO-31 renal, in the assay with HCT-116 colon, in the assay on NCI/ADR-RES ovarian, in the assay with A498 renal, with LOX IMVI melanoma and in the assay with K-562 leukemia was above 25 µM in each case. Besides, the TGI with HS 578T breast, in the assay with OVCAR-8 ovarian, in the assay on CCRF-CEM leukemia and with MCF7 breast was above 25 µM in each case.
For `CN(C)NC1=NS(=O)(=O)c2cc3c(cc2S1)N(N(C)C)C(=O)c1cc2c(cc1N(N(C)C)C3=O)SC(NN(C)C)=NS2(=O)=O`, the TGI in the assay on UO-31 renal, in the assay with HCT-116 colon, in the assay on NCI/ADR-RES ovarian, in the assay on A498 renal, in the assay with LOX IMVI melanoma and in the assay on K-562 leukemia was above 10 µM throughout. Moreover, the TGI with HS 578T breast, in the assay on OVCAR-8 ovarian, in the assay on CCRF-CEM leukemia and with MCF7 breast was above 10 µM in each case.
On to `O=[N+]([O-])c1ccc(-c2nc(N(CCO)CCO)c3ccccc3n2)o1`, for which the GI50 is 0.213 µM in the assay on UO-31 renal; 0.232 µM in the assay with HCT-116 colon; 0.956 µM in the assay with NCI/ADR-RES ovarian; 0.119 µM with A498 renal; 0.269 µM in the assay on LOX IMVI melanoma; 0.337 µM in the assay with K-562 leukemia. Also, the GI50 was 0.346 µM with HS 578T breast, 0.262 µM with OVCAR-8 ovarian, 1.14 µM with CCRF-CEM leukemia and 0.0419 µM in the assay with MCF7 breast. Moreover, the TGI in the assay on UO-31 renal was 0.714 µM; in the assay on HCT-116 colon it was 1.24 µM; with NCI/ADR-RES ovarian, 7.57 µM; in the assay with A498 renal, 0.255 µM; in the assay with LOX IMVI melanoma, 1.64 µM; in the assay on K-562 leukemia, above 20.6 µM. Moreover, the TGI was 1.99 µM with HS 578T breast, 2.88 µM with OVCAR-8 ovarian, 64.1 µM in the assay with CCRF-CEM leukemia and 0.397 µM with MCF7 breast.
`CC1(C)NCCC[C@]2(C)[C@H]3C=CC4=C5C[C@](C)(CO)CC[C@]5(C)CC[C@@]4(C)[C@]3(C)CC[C@@H]12`: the GI50 is 3.59 µM in the assay with UO-31 renal; 2.73 µM with HCT-116 colon; 2.02 µM with NCI/ADR-RES ovarian; 11.4 µM with A498 renal; 2.49 µM with LOX IMVI melanoma; 3.18 µM in the assay on K-562 leukemia. Moreover, the GI50 is 3.2 µM with HS 578T breast, 2.56 µM in the assay on OVCAR-8 ovarian, 3.52 µM in the assay with CCRF-CEM leukemia and 3.14 µM with MCF7 breast. Also, the TGI with UO-31 renal was 15.7 µM; in the assay with HCT-116 colon it was 10.6 µM; in the assay on NCI/ADR-RES ovarian it was 4.52 µM; with A498 renal it was 24.5 µM; with LOX IMVI melanoma it was 6.76 µM; with K-562 leukemia, 10.8 µM. Moreover, the TGI in the assay on HS 578T breast was determined as 13.2 µM; with OVCAR-8 ovarian, 6.66 µM; with CCRF-CEM leukemia, 14.6 µM; in the assay on MCF7 breast, 14.5 µM.
As for `COc1cc(Cl)cc(-c2nn(C(=O)NCCN3CCN(C)CC3)cc2-c2ccncc2)c1`, the GI50 with UO-31 renal is 11.6 µM; in the assay on HCT-116 colon, 14.8 µM; in the assay with NCI/ADR-RES ovarian it was 19.8 µM; in the assay with A498 renal it was 4.67 µM; in the assay on LOX IMVI melanoma it was 18 µM; in the assay with K-562 leukemia, 28.5 µM. Moreover, the GI50 is 4.96 µM in the assay on HS 578T breast, 2.94 µM in the assay on OVCAR-8 ovarian, 43 µM in the assay with CCRF-CEM leukemia and 29.4 µM in the assay with MCF7 breast. For the same compound, the TGI in the assay on UO-31 renal was 62 µM; in the assay with HCT-116 colon it was 31.3 µM; with NCI/ADR-RES ovarian it was 88.5 µM; in the assay with A498 renal, 24.7 µM; with LOX IMVI melanoma, 46.2 µM; with K-562 leukemia, above 100 µM. The TGI in the assay with HS 578T breast was 32.9 µM; with OVCAR-8 ovarian it was above 100 µM; in the assay with CCRF-CEM leukemia it was above 100 µM; in the assay with MCF7 breast it was above 100 µM.
Turning to `[N-]=[N+]=C(C(=O)OCC#CCOC(=O)C(=[N+]=[N-])S(=O)(=O)c1ccccc1)S(=O)(=O)c1ccccc1`, the TGI in the assay with UO-31 renal is 0.519 µM; with HCT-116 colon, above 10 µM; in the assay with NCI/ADR-RES ovarian, above 10 µM; with A498 renal it was above 10 µM; in the assay on LOX IMVI melanoma it was above 10 µM; in the assay on K-562 leukemia, above 10 µM. In addition, the TGI in the assay with HS 578T breast, with OVCAR-8 ovarian, with CCRF-CEM leukemia and with MCF7 breast was above 10 µM in each case.
Take `Cc1ccccc1CN1CC2=C(CCN(Cc3ccccc3)C2=O)N2CCN=C12`: the TGI in the assay on UO-31 renal, with HCT-116 colon, in the assay with NCI/ADR-RES ovarian, with A498 renal, in the assay with LOX IMVI melanoma and in the assay with K-562 leukemia was above 100 µM throughout. The TGI in the assay with HS 578T breast, in the assay with OVCAR-8 ovarian, with CCRF-CEM leukemia and in the assay with MCF7 breast was above 100 µM in each case. For the same compound, the GI50 in the assay on CCRF-CEM leukemia was 0.7 µM.
For the compound `CCOC(=O)Cc1csc(/N=C2\NC(=O)/C(=C3\C(=O)N(C)c4ccccc43)S2)n1`, the GI50 was 35.6 µM with UO-31 renal; 28.1 µM with HCT-116 colon; 49.6 µM in the assay on NCI/ADR-RES ovarian; 46.8 µM in the assay on A498 renal; 34.6 µM with LOX IMVI melanoma; 36 µM with K-562 leukemia. Also, the GI50 in the assay on HS 578T breast was 66.7 µM; in the assay on OVCAR-8 ovarian, 65.3 µM; in the assay with CCRF-CEM leukemia, 26.1 µM; in the assay on MCF7 breast, 46.8 µM. Moreover, the TGI in the assay on UO-31 renal was above 100 µM; with HCT-116 colon it was 60.1 µM; in the assay on NCI/ADR-RES ovarian, above 100 µM; in the assay on A498 renal it was above 100 µM; in the assay on LOX IMVI melanoma, above 100 µM; with K-562 leukemia, above 100 µM. Besides, the TGI was above 100 µM with HS 578T breast, above 100 µM in the assay with OVCAR-8 ovarian, 61.9 µM in the assay with CCRF-CEM leukemia and above 100 µM in the assay with MCF7 breast.
Take `N=C1c2nc3n(c2C(=O)c2nc4n(c21)CCCC4)CCCC3`: the GI50 in the assay with UO-31 renal was 4.03 µM; in the assay on HCT-116 colon it was 19.8 µM; in the assay on NCI/ADR-RES ovarian it was 35.6 µM; in the assay on A498 renal, 0.727 µM; with LOX IMVI melanoma it was 0.406 µM; in the assay with K-562 leukemia, 19.8 µM. Further, the GI50 in the assay with HS 578T breast was 2.18 µM; in the assay with OVCAR-8 ovarian it was 32.8 µM; in the assay with CCRF-CEM leukemia, 20.5 µM; with MCF7 breast it was 1.36 µM. Besides, the TGI in the assay with UO-31 renal was 28.6 µM; with HCT-116 colon, above 100 µM; with NCI/ADR-RES ovarian it was above 100 µM; in the assay on A498 renal, 8.16 µM; in the assay on LOX IMVI melanoma, 2.15 µM; in the assay with K-562 leukemia, above 100 µM. In addition, the TGI in the assay with HS 578T breast was 6.68 µM; with OVCAR-8 ovarian, above 100 µM; in the assay with CCRF-CEM leukemia it was above 100 µM; in the assay on MCF7 breast, 3.61 µM.
Consider `CCC1=C[C@@H]2CN(C1)Cc1c([nH]c3ccccc13)[C@@](C(=O)OC)(c1cc3c(cc1OC)N(C=O)[C@H]1[C@@](O)(C(=O)OC)[C@H](OC(C)=O)[C@]4(CC)[C@@H]5C[C@@H]5CN5CC[C@]31[C@@H]54)C2`, for which the GI50 in the assay on UO-31 renal is 0.173 µM; in the assay on HCT-116 colon it was below 0.000625 µM; in the assay with NCI/ADR-RES ovarian it was 0.632 µM; in the assay on A498 renal, 0.00221 µM; in the assay with LOX IMVI melanoma, below 0.000625 µM; in the assay on K-562 leukemia it was below 0.000625 µM. In addition, the GI50 is 0.00181 µM with HS 578T breast, 0.00268 µM in the assay on OVCAR-8 ovarian, below 0.000625 µM in the assay with CCRF-CEM leukemia and below 0.000625 µM with MCF7 breast. Moreover, the TGI is above 6.25 µM in the assay with UO-31 renal; above 6.25 µM in the assay on NCI/ADR-RES ovarian; 0.0794 µM in the assay on A498 renal; above 6.25 µM in the assay with LOX IMVI melanoma; above 6.25 µM in the assay on K-562 leukemia; above 6.25 µM in the assay on HS 578T breast. Moreover, the TGI with OVCAR-8 ovarian, in the assay on CCRF-CEM leukemia and in the assay on MCF7 breast was above 6.25 µM each time.
Take `Cc1ncc([N+](=O)[O-])n1CCNS(=O)(=O)CCCn1ccnc1[N+](=O)[O-]`: the TGI in the assay on UO-31 renal, in the assay on HCT-116 colon, in the assay on NCI/ADR-RES ovarian, with A498 renal, in the assay on LOX IMVI melanoma and in the assay on K-562 leukemia was above 100 µM throughout. For the same compound, the TGI in the assay with HS 578T breast, in the assay on OVCAR-8 ovarian, in the assay with CCRF-CEM leukemia and in the assay on MCF7 breast was above 100 µM throughout.
